Laboratory results taken from US20230391868A1, “COMPOSITIONS FOR AND METHODS OF TREATING CANCER” (The George Washington University, priority 2022, published 2023).

Experiments:
SM1 melanoma cells = assay: Cd47 mRNA upon IFNγ stimulation in SM1 cells; type: cell-based, mouse; conditions: IFNγ for 12 hours
Protocol: qRT-PCR: Total RNA was extracted from cells using the Trizol reagent according to manufacturer's instructions (ThermoFisher Scientific, 15596018). Samples were then processed immediately or stored at −80° C. RNA was quantified using a NanoDrop One Spectrophotometer (ThermoFisher Scientific). The 260/280 ratios were routinely over 1.8. Sample cDNA was produced using the iScript cDNA synthesis kit (Bio-Rad, 1708891). Target mRNA was quantified using MyIQ single-color real-time PCR detection system from Bio-Rad (Bio-Rad, Hercules, CA) and iQ SYBR green Supermix (Bio-Rad, 1708882). The following primers were synthesized by Invitrogen (Waltham, MA) with sequences designed by Origene (Rockville, MD): mouse R-actin (MP200232), mouse Nos2 (MP208933), mouse MRC1 (MP207800), human R-actin (HP204660), human IL-1β (HP200544), human MRC1 (HP206121), human NOS2 (HP200591), human CD209 (HP214086), mouse SIRPα (MP215450), mouse LRP1 (MP207604), human LRP1 (HP206040), mouse MFGE8 (MP208190), human MFGE8 (HP225757), mouse CD36 (MP201923), human CD36 (HP200058), and mouse CD47 (MP201932). Primers for mouse ARG-1 (PPM31770C) and human SIRPα (QT01031051) were purchased from Qiagen (Hilden, Germany). […] Quantification is expressed in arbitrary units and target mRNA levels were normalized to R-actin expression.
Although the mechanism by which IFNγ drives CD47 upregulation is unclear, IFNγ expression correlates to CD47 expression in skin cutaneous melanoma (Ye Z H, et al. (2021) Transl. Oncol. 14:101162). The kinetics of Cd47 mRNA in SM1 and B16 cells upon IFNγ stimulation (100 ng/mL) were evaluated and these mouse melanoma models were determined to have different kinetics (FIG. 9A-FIG. 9B). It was determined that 12 hours was a time point for both models to sustain the IFNγ-mediated upregulation. In FIG. 9B, the role of HDAC6 inhibitors NextA and Tubastatin A in abrogating Cd47 upregulation upon stimulation with IFNγ for 12 hours was evaluated.

A31A7 macrophages = assay: Western Blotting of A31A7 macrophages polarized to M2; type: cell-based, mouse; conditions: Western Blot, M2 A31A7 (FIG. 7F)
Protocol: Cells were treated with the respective compounds for 24 h. Then, cells were lysed using RIPA buffer (ThermoFisher Scientific Pierce, 89901, Waltham, MA) supplemented with 1× protease and phosphatase inhibitor (ThermoFisher Scientific, A32961). Lysates were sonicated at 4° C. for 8 minutes (8 cycles of 30 sec on, 30 sec off). Protein concentration was quantified using a BCA protein assay (ThermoFisher Scientific, 23225) following manufacturer's instructions. Samples were mixed with 6× Laemmli SDS sample reducing buffer (Alfa Aesar, J61337AC, Tewksbury, MA), and boiled at 80° C. for 10 min. Next, samples were loaded on to 4%-20% gels (Bio-Rad, 4561096, Hercules, CA), transferred to PVDF membranes and blocked with Odyssey Blocking Buffer (LI-COR Biosciences, 927-40000, Lincoln, NE). The following primary antibodies used for immunoblotting were purchased from Cell Signaling Technologies (Danvers, MA): tubulin (3873), acetylated tubulin (3971), arginase-1 (93668), and SIRPα (13379). Primary antibody recognizing HDAC6 was purchased from Assay Biotechnology (C0226, Fremont, CA), and iNOS antibody was purchased from ThermoFisher Scientific (PA3-030A). Bands were detected using Azure Biosystems Imaging System c600 (Azure Biosystems, Dublin, CA).

SIRPα = SIRPα gene expression in mouse macrophages by qRT-PCR; type: cell-based; conditions: A31A7 macrophages and BMDMs, unpolarized and polarized, qRT-PCR (FIG. 2A)
Protocol: Bone marrow-derived macrophages were isolated from the femurs and tibias of wild-type C57/Bl6, HDAC6 knockout (C57BL/6J-Hdac6em2Lutzy/J, 029318, Jackson Laboratory), or UBC-GFP (C57BL/6-Tg(UBC-GFP)30Scha/J, 004353, Jackson Laboratory). Isolated bone marrow cells were cultured in RPMI 1640 complete medium with 10% FBS, 1% NEAA, and 1% penicillin-streptomycin in 5% CO2 at 37° C. Medium was supplemented with murine recombinant M-CSF (20 ng/mL, 576404, Biolegend) to differentiate monocytes into macrophages. Three days after bone marrow isolation, undifferentiated and floating cells were washed with PBS and replaced with fresh RPMI media. A3.1A7 cells and BMDMs were pretreated with 5 μM of HDAC6 inhibitor NextA or vehicle prior to adding polarizing cytokines. […]
qRT-PCR: Total RNA was extracted from cells using the Trizol reagent according to manufacturer's instructions (ThermoFisher Scientific, 15596018). […] RNA was quantified using a NanoDrop One Spectrophotometer (ThermoFisher Scientific). […] Target mRNA was quantified using MyIQ single-color real-time PCR detection system from Bio-Rad (Bio-Rad, Hercules, CA) and iQ SYBR green Supermix (Bio-Rad, 1708882). […] Quantification is expressed in arbitrary units and target mRNA levels were normalized to R-actin expression.

CCCCN(Cc1ccc(C(=O)NO)cc1)C(=O)Nc1ccccc1 [NextA, Nexturastat A]
IFNγ-driven Cd47 upregulation at the transcriptional level (SM1 melanoma cells): repressed these effects
ARG1 expression (A31A7 macrophages): decrease
HDAC6 inhibitor potency compared with Tubacin and Tubastatin A (A31A7 macrophages): most potent HDAC6 inhibitor
acetylated tubulin, a marker for HDAC6 inhibition (A31A7 macrophages): robust increase
Sirpa expression at the transcriptional level (SIRPα): significantly downregulated
Sirpa expression at the transcriptional level (SIRPα; listed as Nexturastat A): downregulated
